≈ marks a conversion by molar mass, not a printed value.
How the values were obtained:
[1] = Thermodynamic solubility test; format: physicochemical; settings: buffer solution, aqueous buffer, thermodynamic from solid; thermodynamic solubility, room temperature, 8 hours shaking; buffers pH 2.0, 6.5, 7.4 used, pH of the tabulated value not given
Procedure: Solubility Test of Compounds
Table 9. Reagents and Instruments
After sonication for 10 minutes, they were fixed on a shaker and shaken at room temperature for 8 hours. After shaking, they were sonicated for 10 minutes and centrifuged at 13000 rpm for 15 minutes. 0.1 mL of supernatant was aspirated into a new tube, rinsed with 5 mL of buffer by shaking, and the liquid was discarded. 0.5 mL of supernatant was transferred again to a new tube, centrifuged at 13000 rpm for 15 minutes, and the supernatant was taken (diluted with water if necessary) for LC-MS injection analysis. Sample concentrations were quantified using a 3-5 point calibration curve.

melanin = assay: Compound binding to melanin; format: in vitro ADME; settings: cuttlefish (Sepia officinalis), melanin suspension (1 mg/mL), percentage of free drug (not bound to melanin), 2 µM compound, melanin 1 mg/mL in PBS pH 7.4, 37°C
Text: Detection of Compound Binding to Melanin
Pigmented ocular tissues contain melanin within intracellular melanosomes. Drugs bind to melanin to varying degrees, from no binding to extensive binding. Therefore, melanin binding is an important characteristic affecting ocular drug delivery and biodistribution. The ability of compounds to bind to melanin must be considered in ocular drug development.
Melanin derived from cuttlefish (Sepia officinalis) melanin was purchased from Sigma Aldrich (St Louis, MO).
First, prepare a 1 mg/mL melanin suspension in PBS (pH 7.4). As a matrix washing step, suspended particles were centrifuged at 3000 rpm for 5 minutes. The resulting pellet was resuspended in fresh PBS buffer, heated to 37°C with continuous shaking, and incubated for 1 hour. Accurately pipette 2 microliters of test compound stock solution (0.1 mM) into 98 microliters of melanin suspension (1 mg/mL), resulting in a final incubation concentration of 2 µM. Similarly, accurately pipette 2 microliters of stock solution (0.1 mM) into 98 microliters of PBS buffer (containing 0.1% BSA) as a blank control sample. Samples were incubated at 37°C for 2 hours on a shaker (80-90 rpm). Then centrifuged at room temperature. 50 microliters of supernatant was aspirated and added to 50 microliters of precipitation agent (containing internal standard). All samples above were subjected to protein precipitation, centrifuged, the supernatant was taken, diluted with water (if necessary), and then injected for analysis. Simultaneously, high-binding compounds Sunitinib and chloroquine, and the low-binding compound celecoxib were measured as positive controls. An LC-MS/MS analytical method for determining compound concentration was established. The ratio of analyte/internal standard peak areas (Aanalyte/AIS) measured in the samples, calibrated by the dilution factor, was used as the surrogate concentration for data processing. The binding rate of the compound to melanin (Fb) is calculated by the formula: Fb = 100−(Ctest)/(Ccontrol) × 100% [formula]
Ctest is the drug concentration of the compound in the melanin incubation sample or the peak area ratio of the test compound to the internal standard. Ccontrol is the drug concentration of the compound in the blank control sample or the peak area ratio of the test compound to the internal standard. Percentage of free drug (Fu%) = 100 - Fb The binding rates of the compounds of the present invention to melanin are shown in the table below: Table 11. Binding Rate of Compounds to Melanin

[2] = Ophthalmic formulations based on polyethylene glycol series vehicles: composition and state (Example 7); format: physicochemical
Text: (§1) In the following ophthalmic formulation preparation examples, "solution" refers to a clear, transparent liquid without visible insoluble matter. "Near-clear solution" refers to a liquid that appears close to a solution upon visual observation but may contain a small amount of insoluble particles or have a slightly opaque color. "Suspension" refers to a liquid that is visibly turbid or opaque. "Gel" refers to a completely or partially gel-like solid.
Example 7: Ophthalmic Formulations Based on Polyethylene Glycol Series Vehicles
According to the formulation composition shown in the tables below, weigh the compound powder, add it to polyethylene glycol 400, and sonicate until dissolved or nearly dissolved (heat to 50°C if necessary). Add this to a Tris-HCl buffer solution containing hydroxypropyl-β-cyclodextrin, poloxamer 188, and gellan gum (or other viscosity modifier), vortex to mix, and prepare into an eye drop formulation.

[3] = Ophthalmic formulations based on in situ salt formation technology: composition and state (Example 8); format: physicochemical; settings: pH ~7
Text: as §1
Example 8: Ophthalmic Formulation Based on In Situ Salt Formation Technology
Therefore, by preparing ophthalmic formulation compositions based on in situ salt formation technology, the solubility of the compounds can be further improved.
According to the formulation composition shown in the table below, weigh the compound powder, add 50% of the total volume (v/v) of a 30% (w/v) aqueous solution of hydroxypropyl-β-cyclodextrin (containing surfactant), and disperse by sonication; next, add an appropriate volume of pH regulator and sonicate until clear; then, add an equal volume of buffer containing solubilizer, viscosity modifier, etc., for dilution, and immediately vortex to mix; finally, add an appropriate volume of alkali regulator to adjust the solution pH to approximately 7, to prepare an eye drop formulation.
Using the in situ salt formation method, the compound is first dispersed in a solution containing Hydroxypropyl-β-cyclodextrin, then different acids are added to adjust the pH to 3-5, allowing the compound to fully or nearly fully dissolve, followed by adding the remaining components and adjusting the pH to approximately 7. […] Based on the visual dissolution effect after acid addition, methanesulfonic acid, acetic acid, and lactic acid were preliminarily selected as pH regulators. The preliminarily selected acids were used in subsequent tests with higher compound concentrations. Table 18 Formulation Composition and State

EGFR = biological target: T1, EGFR (Homo sapiens, UniProt P00533); assay: Kinase inhibitory activity, Mobility Shift Assay (EGFR); format: biochemical
T1 construct: purchased Carna 08-115
T1 sequence (P00533 25-1210): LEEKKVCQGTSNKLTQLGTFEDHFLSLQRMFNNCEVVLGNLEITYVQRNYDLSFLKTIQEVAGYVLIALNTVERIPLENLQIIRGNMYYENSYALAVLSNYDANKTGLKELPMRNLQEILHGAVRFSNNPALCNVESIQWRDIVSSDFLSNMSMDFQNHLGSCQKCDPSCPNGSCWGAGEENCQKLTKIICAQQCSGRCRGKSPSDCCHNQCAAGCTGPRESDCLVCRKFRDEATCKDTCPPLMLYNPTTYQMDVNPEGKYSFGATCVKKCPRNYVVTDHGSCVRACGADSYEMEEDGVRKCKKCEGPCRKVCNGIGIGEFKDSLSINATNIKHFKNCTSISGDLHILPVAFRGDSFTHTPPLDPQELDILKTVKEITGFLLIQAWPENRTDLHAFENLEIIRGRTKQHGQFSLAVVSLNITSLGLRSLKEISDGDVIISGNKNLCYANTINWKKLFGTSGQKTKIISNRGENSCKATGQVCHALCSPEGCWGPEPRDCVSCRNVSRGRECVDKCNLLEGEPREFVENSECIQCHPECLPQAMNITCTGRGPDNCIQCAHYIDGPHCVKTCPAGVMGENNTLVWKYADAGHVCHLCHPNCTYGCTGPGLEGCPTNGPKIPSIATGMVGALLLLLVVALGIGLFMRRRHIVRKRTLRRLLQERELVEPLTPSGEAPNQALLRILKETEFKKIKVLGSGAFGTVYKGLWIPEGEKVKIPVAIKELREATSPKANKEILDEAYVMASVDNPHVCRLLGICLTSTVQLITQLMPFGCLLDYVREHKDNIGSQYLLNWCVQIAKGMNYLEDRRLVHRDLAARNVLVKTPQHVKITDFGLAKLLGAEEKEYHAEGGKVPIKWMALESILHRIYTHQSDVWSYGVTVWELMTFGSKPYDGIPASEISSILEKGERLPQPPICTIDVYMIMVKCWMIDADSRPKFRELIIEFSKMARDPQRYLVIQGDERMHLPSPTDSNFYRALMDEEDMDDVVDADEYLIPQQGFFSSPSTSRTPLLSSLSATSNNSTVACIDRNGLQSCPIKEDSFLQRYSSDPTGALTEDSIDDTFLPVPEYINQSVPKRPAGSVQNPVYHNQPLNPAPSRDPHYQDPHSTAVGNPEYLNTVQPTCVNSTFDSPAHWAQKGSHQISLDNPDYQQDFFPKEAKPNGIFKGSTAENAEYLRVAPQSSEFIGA
Procedure: Assay for Inhibitory Activity of Compounds Against VEGFR and EGFR Kinases
This assay directly monitors the inhibitory activity of compounds on kinase phosphorylation by measuring non-phosphorylated and phosphorylated substrates in the kinase reaction using Mobility Shift Assays/IMAP™ analysis. Table 2. Reagents and Instruments
Kinase and DTT were added to 1X kinase buffer to form a 2.5X kinase solution; 10 µL of the 2.5X kinase solution was transferred to a 384-well reaction plate, and 1X kinase buffer was added to the negative control wells. The plate was incubated at room temperature for 10 minutes; FAM-labeled peptide, MgCl2, ATP, and other reagents were added to 1X kinase buffer to form a 2.5X substrate solution; 10 µL of the above 2.5X substrate solution was transferred to the 384-well reaction plate; the plate was incubated at 28°C for varying times, and then 25 µL of stop solution was added to the 384-well reaction plate to terminate the reaction. Conversion rate data were read on a CaliperEZ Reader II. […] IC50 values were fitted using XLFit excel add-in version 5.4.0.8. Y = Bottom + (Top−Bottom)/(1 + […]) [formula]
X is the log value of compound concentration, Y is the inhibition rate (% inhibition).

[4] = Table 16: 2 mg/mL, Polyethylene Glycol 400 5, Poloxamer 188 1, Hydroxypropyl-β-cyclodextrin 6, Gellan Gum Gelrite 0.15, Tris-HCl Buffer (pH 6.8) 25mM
[5] = Table 13: 1mg/ml, Polyethylene glycol 400 5, Hydroxypropyl-β-cyclodextrin 10, Tris-HCl buffer (pH 8.3) 50mM, Carbomer 0.48, Poloxamer 188 1
[6] = Table 14: 5mg/ml, Polyethylene glycol 400 10, Hydroxypropyl-β-cyclodextrin 10, Gellan Gum Gelrite 0.3, Poloxamer 188 1, 0.5 M Tris solution 2, 0.1 M Citric acid 1
[7] = Table 15: 10 mg/mL, Polyethylene glycol 400 10, Hydroxypropyl-β-cyclodextrin 10, Gellan Gum Gelrite 0.3, Poloxamer 188 1, Tris solution and Citric acid

SMILES	solubility at 8 h [1]	fraction unbound at 2 h, 2 µM (melanin)	State Description: pH [2, 4]	State Description: state [2, 4]	State Description: pH [2, 7]	State Description: state [2, 7]	Osmolality (mOsm/kg) [2, 4]	further results
O=C(NC1CC1)c1cccc(F)c1Sc1ccc2c(/C=C/c3ccc(CN4CCCC4)cn3)n[nH]c2c1 [Compound I-67, N-cyclopropyl-3-fluoro-2-({3-[(E)-2-{5-[(pyrrolidin-1-yl)methyl]pyridin-2-yl}ethenyl]-1H-indazol-6-yl}thio)benzamide]	118 µg/mL (≈ 230 µM)	> 0.05	~7	solution				State Description ([3]; Table 19, Compound 5 mg/ml, 1M Benzenesulfonic Acid 1%, no Polyoxyethylene castor oil EL, no alkali added): solution; State Description ([3]; Table 19, Compound 5 mg/ml, 1M Methanesulfonic Acid 1%, Polyoxyethylene castor oil EL 1%, 0.5M Tris 0.5%): solution; State Description ([3]; Table 19, Compound 5 mg/ml, 1M Methanesulfonic Acid 1%, no Polyoxyethylene castor oil EL, 0.5M Tris 0.5%): near-clear solution; State Description ([3]; Table 19, Compound 10 mg/ml, 1M Acetic Acid 2%, no Polyoxyethylene castor oil EL, 0.5M Tris 1%): solution; State Description ([3]; Table 19, Compound 10 mg/ml, 1M Lactic Acid 2%, no Polyoxyethylene castor oil EL, 0.5M Tris 1%): solution; State Description ([3]; Table 19, Compound 20 mg/ml, 1M Methanesulfonic Acid 4%, Polyoxyethylene castor oil EL 1%, 0.5M Tris 1.5%): near-clear solution
CCNC(=O)c1cccc(F)c1Sc1ccc2c(/C=C/c3ccc(CN4CCCC4)cn3)n[nH]c2c1 [Compound I-75, N-ethyl-3-fluoro-2-({3-[(E)-2-{5-[(pyrrolidin-1-yl)methyl]pyridin-2-yl}ethenyl]-1H-indazol-6-yl}sulfanyl)benzamide]			~7	solution				
CCN(CC)Cc1ccc(/C=C/c2n[nH]c3cc(Sc4ccc(F)cc4C(=O)NC4CC4)ccc23)nc1 [Compound I-84, N-cyclopropyl-5-fluoro-2-({3-[(E)-2-{5-[(diethylamino)methyl]pyridin-2-yl}ethenyl]-1H-indazol-6-yl}thio)benzamide]	599 µg/mL (≈ 1160 µM)	> 0.05	~7	solution	~5.5	gel	~300 mOsm/kg	State Description: pH [2, 5]: ~5; State Description: state [2, 5]: homogeneous suspension; State Description: pH [2, 6]: ~7.5; State Description: state [2, 6]: near-clear solution
CCNC(=O)c1ccccc1Sc1ccc2c(/C=C/c3ccc(CN(CC)CC)cn3)n[nH]c2c1 [Compound I-86, 2-({3-[(E)-2-{5-[(diethylamino)methyl]pyridin-2-yl}ethenyl]-1H-indazol-6-yl}thio)-N-ethylbenzamide]	1130 µg/mL (≈ 2320 µM)	0.01 to 0.05	~7	solution	~5.5	near-clear solution	~300 mOsm/kg	
CCNC(=O)c1cc(F)ccc1Sc1ccc2c(/C=C/c3cnn(CCCN4CCCC4)c3)n[nH]c2c1 [Compound I-104, N-ethyl-5-fluoro-2-({3-[(E)-2-{1-[3-(pyrrolidin-1-yl)propyl]-1H-pyrazol-4-yl}ethenyl]-1H-indazol-6-yl}sulfanyl)benzamide]	2180 µg/mL (≈ 4200 µM)	> 0.05	~7	solution			~300 mOsm/kg	IC50 (EGFR): > 60 µM
O=C(NC1CC1)c1ccccc1Sc1ccc2c(/C=C/c3cc(OCCN4CCCC4)ccn3)n[nH]c2c1 [Compound I-110, N-cyclopropyl-2-({3-[(E)-2-{4-[2-(pyrrolidin-1-yl)ethoxy]pyridin-2-yl}ethenyl]-1H-indazol-6-yl}sulfanyl)benzamide]								State Description ([3]; Table 20, Compound 10 mg/ml, 1M Methanesulfonic Acid 2%, Polyoxyethylene castor oil EL 1%, 0.5M Tris 2%): near-clear solution; State Description ([3]; Table 20, Compound 20 mg/ml, 1M Methanesulfonic Acid 4%, Polyoxyethylene castor oil EL 1%, 0.5M Tris 2%): near-clear solution

— EP4781984A1 (Beyang Therapeutics Co., Ltd., priority 2023, dated 2025)
